Where two headings read alike, the source gives them in different places.
Legend:
[1] = tested on: PTSD; details: average dose 2.4 mg; military veterans with PTSD taking or not taking antidepressant; cited from earlier work
[2] = tested on: PTSD; assay: Example 1 case summaries 1-6: tizanidine as adjunctive treatment for PTSD, anxiety, depression, psychosis or impaired cognition; type: in vivo, human
Description: Treatment was begun with sertraline 100 mg per day for anxiety and nortriptyline 25 mg at bedtime for headaches. […] Treatment with tizanidine was started and the dose was increased to 8 mg at bedtime.
Tizanidine was started and titrated up to 4 mg at bedtime along with aripiprazole (15 mg at bedtime) and clonazepam (0.5 mg daily).
These medications included sertraline (250 mg daily), divalproex sodium (2500 mg daily), quetiapine (100 mg twice daily and 400 mg at bedtime), amitriptyline (25 mg at bedtime), and tramadol (50 mg as needed for severe headache). […] A trial of tizanidine was started and the dose was titrated up to 8 mg at bedtime.
Pharmacologic Treatment and Response: While on the psychiatry unit, they were treated with sertraline for PTSD and nortriptyline for headaches and depression. […] They were started on tizanidine 4 mg at bedtime.
After approximately one year, subject agreed to a trial of tizanidine as an addition to sertraline. […] They agreed to increase the dose to 4 mg at bedtime and follow-up in four weeks. […] An atypical antipsychotic medication, aripiprazole, was added to their medications.
Treatment with tizanidine 4 mg at bedtime was added to the existing sertraline.

[3] = cited from earlier work
[4] = fraction of the potency of clonidine; cited from earlier work
[5] = tested on: PTSD; assay: Example 2 case summaries 7-9: switching from once to twice-daily dosing of tizanidine
Description: They were continued on aripiprazole, quetiapine, sertraline, and trazodone. Treatment with tizanidine was started for the nightmares and poor sleep.
They were switched from tizanidine 8 mg at bedtime to tizanidine 6 mg in the morning and 8 mg at bedtime. […] They continued on the sertraline, divalproex, and trazodone for initial insomnia. The tizanidine was switched to 4 mg in the morning and 4 mg at bedtime.
Subject was started on tizanidine up to 8 mg at bedtime for nightmares. They also were issued a device to assist with memory problems. A rating scale for common cognitive problems was administered by speech pathology prior to issuing them a personal digital assistant as a memory assist device.
They continued to take sertraline and tizanidine. At a psychology evaluation session, subject completed two self-report instruments of PTSD and depressive symptoms to establish a baseline indication of symptom severity. […] Subject was then switched from tizanidine 8 mg at bedtime to 4 mg twice daily.
After approximately one year of being followed in the psychiatry clinic, they became more willing to try medication and agreed to a trial of tizanidine.

[6] = tested on: PTSD; details: Case 10
From the text: Given the prior history of ADHD, methylphenidate was cautiously added to the venlafaxine. […] They were referred to a specialty inpatient program for PTSD. During the inpatient program, the antidepressant was switched from venlafaxine to duloxetine.

[7] = Case 2, tizanidine 4 mg at bedtime with aripiprazole 15 mg and clonazepam 0.5 mg, after two months
[8] = Case 2, tizanidine 8 mg at bedtime, other medications stopped, two months later
[9] = Case 3, tizanidine 8 mg at bedtime, after four weeks
[10] = Case 4, tizanidine 4 mg at bedtime
[11] = Case 5, tizanidine 2 mg at bedtime added to sertraline, several weeks
[12] = Case 5, tizanidine 4 mg at bedtime with sertraline, four weeks
[13] = Case 5, tizanidine 4 mg at bedtime, aripiprazole added, eight weeks later
[14] = Case 5, tizanidine 8 mg at bedtime, not taking sertraline and aripiprazole, eight weeks
[15] = Case 5, tizanidine 8 mg at bedtime, primary care appointment one month later
[16] = Case 6, tizanidine 4 mg at bedtime added to sertraline, approximately four weeks
[17] = Case 7, switched from tizanidine 8 mg at bedtime to 6 mg in the morning and 8 mg at bedtime, two months later
[18] = Case 7, tizanidine 4 mg twice daily, one month after switch
[19] = Case 7, tizanidine 8 mg at bedtime, four weeks
[20] = Case 8, tizanidine 4 mg twice daily, two weeks after switch
[21] = Case 9, trial of tizanidine, two months later
[22] = tizanidine 4 mg twice daily with methylphenidate, after four weeks

N=C(N)NC(=O)Cc1c(Cl)cccc1Cl [guanfacine]
relieving signs or symptoms of PTSD compared to placebo [1]: not effective compared to placebo

Clc1ccc2nsnc2c1NC1=NCCN1 [tizanidine]
daytime anxiety ([2]; Case 1, tizanidine 8 mg at bedtime, after two weeks): less daytime anxiety
reduction in nightmares ([2]; Case 1, tizanidine 8 mg at bedtime, after two weeks, subject report): ~50%
alcohol use [2, 7]: one to two
mood and energy [2, 7]: somewhat better
other signs and symptoms of Major Depression, PTSD, and Psychosis NOS [2, 7]: unchanged
overall condition [2, 7]: mildly improved
panic attacks [2, 7]: had not experienced any panic attacks
overall condition ([2]; Case 2, tizanidine 8 mg at bedtime, other medications stopped by subject, two months later): markedly improved
alcohol use ([2]; Case 2, tizanidine 8 mg at bedtime, other medications stopped, preceding two months): had not drunk any alcohol
daytime anxiety [2, 8]: less anxious during the day
energy [2, 8]: improved
hallucinations [2, 8]: had stopped
intrusive thoughts of combat or the Iraq war [2, 8]: less frequent
nightmares [2, 8]: much less frequent
panic attacks [2, 8]: able to leave their house without panic attacks
sleep [2, 8]: improved
combat-related nightmares [2, 9]: complete absence of combat-related nightmares
concentration and attention during the day [2, 9]: easier to concentrate
daytime anxiety [2, 9]: substantial decrease in daytime anxiety
nightmares overall [2, 9]: substantial reduction in nightmares overall
sleep [2, 9]: significantly improved
tremor, at rest and with action [2, 9]: improved
hallucinations ([2]; Case 3, tizanidine 8 mg at bedtime, after four weeks, quetiapine dose decreased by subject): greatly reduced
irritability and anxiety during the day [2, 10]: less irritable and less anxious
nightmares [2, 10]: reduced their nightmares
quality of sleep [2, 10]: improved the quality of their sleep
nightmares ([2]; Case 4, tizanidine 4 mg at bedtime, approximately three weeks after starting): somewhat improved
nightmares [2, 11]: no change to nightmares
side effects or other adverse effects [2, 11]: no side effects or other adverse effects
nightmares frequency [2, 12]: 3-4 times per week
overall condition [2, 12]: not doing well
panic attacks frequency [2, 12]: 2-3 times per week
alcohol use [2, 13]: one to two
mood and energy level [2, 13]: an improvement in their mood and energy level
overall improvement [2, 13]: limited improvement
remainder of PTSD and depressive symptoms [2, 13]: unchanged
panic attacks ([2]; Case 5, tizanidine 4 mg at bedtime, aripiprazole added, eight weeks later, for several weeks): free from panic attacks
side-effects ([2]; Case 5, tizanidine 4 mg at bedtime, eight weeks later): no side-effects
alcohol consumption [2, 14]: decreased to less than once per month
anxiety and energy during the day [2, 14]: less anxious and more energetic
nightmares [2, 14]: improved
overall improvement [2, 14]: substantial improvement
panic attacks [2, 14]: continued to be absent
anxiety [2, 15]: less anxiety
depression [2, 15]: improved depression
hallucinations [2, 15]: denied having any hallucinations
nightmares [2, 15]: decreased nightmares
feeling rested the next day [2, 16]: more rested the next day
night sweats [2, 16]: fewer night sweats
nightmares [2, 16]: reduction in their nightmares
overall sleep quality [2, 16]: improved
sleep time [2, 16]: had not increased their sleep time
peak serum levels ([3]; single 4 mg capsule): ~4.0 ng/mL
peak serum levels ([3]; single 4 mg tablet): about 2.7 ng/ml
potency in lowering blood pressure relative to clonidine [4]: one-tenth to one-fiftieth
daytime anxiety [5, 17]: greater reduction to their daytime anxiety
nightmares and sleep quality [5, 17]: no change to the beneficial impact
nightmares ([5]; Case 7, tizanidine 4 mg twice daily with sertraline, divalproex, trazodone, one month after switch): continued to have no nightmares
daytime anxiety [5, 18]: no change to daytime anxiety
daytime cognition [5, 18]: no change in daytime cognition
desire to smoke cigarettes [5, 18]: definite reduction in their desire to smoke
mood [5, 18]: no changes in mood
sleep [5, 18]: continued to have restful sleep
nightmares overall ([5]; Case 7, tizanidine 8 mg at bedtime with aripiprazole, quetiapine, sertraline, trazodone, four weeks): greatly reduced nightmares overall
anxiety during the day [5, 19]: significantly less anxiety during the day
combat-related nightmares [5, 19]: complete absence of combat-related nightmares
hallucinations [5, 19]: fewer hallucinations
tremor [5, 19]: improved tremor
sleep ([5]; Case 8, switched from tizanidine 8 mg at bedtime to 4 mg twice daily, two weeks later): no change in sleep
energy (new onset, gradually improving) [5, 20]: mild decrease in energy
hypervigilance during the day [5, 20]: reduced hypervigilance during the day
irritability during the day [5, 20]: less irritability during the day
nightmares [5, 20]: eliminates nightmares
feeling better the next day ([5]; Case 8, tizanidine 8 mg at bedtime with sertraline): significant improvement
cognitive function ([5]; Case 8, tizanidine up to 8 mg at bedtime with sertraline, memory assist device also issued, following weeks): improved
twice-daily compared to once-daily dosing ([5]; Case 9, tizanidine 4 mg twice daily versus 8 mg at bedtime, same total milligrams): clear superiority of twice-daily
cognitive symptoms [5, 21]: unchanged
headaches [5, 21]: much less intense
mood and energy [5, 21]: improved
sleep [5, 21]: better
anxiety ([5]; Case 9, trial of tizanidine, two months later, still startled easily and hypervigilant): less anxiety
nightmares [6, 22]: absence of nightmares
overall helpfulness [6, 22]: extremely helpful
sleep [6, 22]: greatly improved sleep
daytime anxiety ([6]; when taking tizanidine 4 mg twice daily): less daytime anxiety
